Measurements from PubChem BioAssay (NCI).
Values joined by “and” are separate entries in the source; they are usually repeats but may differ in a detail not shown here. Equal values may be shown once.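 48-hour exposure; five concentrations; linearly interpolated endpoints. GI50: concentration for 50% inhibition of growth. TGI marks complete inhibition of growth.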

Experiments:
Assay in all cases: NCI anticancer screen, dose series, 48 h
A549 NSCLC = test system: A549 NSCLC
LOX IMVI melanoma = test system: LOX IMVI melanoma
TK-10 renal = test system: TK-10 renal
T-47D breast = test system: T-47D breast
SF-295 CNS = test system: SF-295 CNS
MOLT-4 leukemia = test system: MOLT-4 leukemia
OVCAR-8 ovarian = test system: OVCAR-8 ovarian
SK-OV-3 ovarian = test system: SK-OV-3 ovarian
SK-MEL-28 melanoma = test system: SK-MEL-28 melanoma

| Structure (SMILES) | GI50 (A549 NSCLC) | TGI (A549 NSCLC) [µM] | GI50 (LOX IMVI melanoma) | TGI (LOX IMVI melanoma) | GI50 (TK-10 renal) | TGI (TK-10 renal) [µM] | GI50 (T-47D breast) | TGI (T-47D breast) | GI50 (SF-295 CNS) | TGI (SF-295 CNS) | GI50 (MOLT-4 leukemia) | TGI (MOLT-4 leukemia) | GI50 (OVCAR-8 ovarian) | TGI (OVCAR-8 ovarian) [µM] | GI50 (SK-OV-3 ovarian) | TGI (SK-OV-3 ovarian) | GI50 (SK-MEL-28 melanoma) | TGI (SK-MEL-28 melanoma) |
| --- | --- | --- | --- | --- | --- | --- | --- | --- | --- | --- | --- | --- | --- | --- | --- | --- | --- | --- |
| CCCCON(OC(=O)c1ccccc1)C(=O)c1ccccc1 | > 100 µM | > 100 | > 100 µM | > 100 µM | > 100 µM | > 100 | > 100 µM | > 100 µM | > 100 µM | > 100 µM | 53.1 µM | > 100 µM | > 100 µM | > 100 | > 100 µM | > 100 µM | > 100 µM | > 100 µM |
| CC(C)[C@]12O[C@H]1[C@@H]1O[C@]13[C@]1(O[C@H]1C[C@H]1C4=C(CC[C@@]13C)C(=O)OC4)[C@@H]2O | 0.0276 µM and 0.0246 µM | > 100 | < 0.01 µM | 0.0251 µM | 0.0278 µM | > 100 | 0.0211 µM and 0.0292 µM | – | – | 0.646 µM and 0.934 µM | 0.0128 µM | 0.0348 µM | 0.0285 µM | – | – | > 100 µM | 0.0119 µM | 0.0226 µM and 0.032 µM |
| O=C[C@@H](CO)O[C@H](C=O)c1c[nH]c(=O)[nH]c1=O | – | 1020 | – | 886 µM | – | 355 | – | 606 µM | – | 1150 µM | – | 605 µM | – | 352 | – | 473 µM | – | 237 µM |
| CCc1nc(N)nc(N)c1-c1ccc(NCCN)c([N+](=O)[O-])c1 | – | > 100 | – | > 100 µM | – | > 100 | – | > 100 µM | – | > 100 µM | – | > 82.8 µM | – | > 100 | – | > 100 µM | – | > 100 µM |
| C[C@@H]1COCCN1c1cc(C2([S@](C)(=N)=O)CC2)nc(-c2ccnc3[nH]ccc23)n1 | 3.46 µM and 4.02 µM | > 100 | 0.903 µM and 2.75 µM | 12.7 µM and > 10 µM | 3.69 µM and 1.68 µM | > 59.7 | 3.96 µM and 7.78 µM | 35.8 µM and > 10 µM | 2.6 µM and 3.21 µM | 32.9 µM and > 10 µM | 2.58 µM and 3.39 µM | 9.54 µM and > 10 µM | 6.65 µM and > 10 µM | > 84.5 | 2.7 µM and 4.51 µM | 27.9 µM and > 10 µM | 10.9 µM and > 10 µM | > 79.7 µM |
| Clc1ncnc(Cl)c1Cl | – | > 100 | – | > 100 µM | – | > 100 | – | > 100 µM | – | > 100 µM | – | > 100 µM | – | > 100 | – | > 100 µM | – | > 100 µM |
| FC(F)(F)Oc1cccc(-c2cnc3ccc(-c4ccncc4)nn23)c1 | 1.12 µM | 9.22 | 1.07 µM | 10.2 µM | 1.14 µM | 9.76 | 0.571 µM | 4.26 µM | 1.54 µM | > 100 µM | 2.17 µM | 7.73 µM | 1.47 µM | > 100 | 0.392 µM | 2.11 µM | 2.53 µM | > 100 µM |
| O=C(O)CCNc1ccccc1C(=O)O | – | > 100 | – | > 100 µM | – | > 100 | – | > 100 µM | – | > 100 µM | – | > 100 µM | – | > 100 | – | > 100 µM | – | > 100 µM |
| Cc1cccc(NC(=O)CCc2ccc(N3C(N)=NC(N)=NC3(C)C)cc2)c1 | 0.188 µM | > 29 | 0.654 µM | > 100 µM | 18.2 µM | > 100 | 38.6 µM | > 100 µM | 2.56 µM | > 76.3 µM | 2.7 µM | > 100 µM | 13.6 µM | > 100 | > 62.9 µM | > 100 µM | 11.8 µM | > 100 µM |
